This is an account of results in PMC5824694, “Evaluation of agonist and antagonist radioligands for somatostatin receptor imaging of breast cancer using positron emission tomography” (EJNMMI Radiopharmacy and Chemistry, 2017).

Like-named read-outs stand apart in the source and are kept apart here.

The nature of data set [1]: biodistribution and PET/CT in ZR-75-1 tumor-bearing NOD scid gamma mice. Particulars: female, mouse, in vivo, iv, total radioactivity; for tissue uptake at 1 h: NOD scid gamma (NOD.Cg-Prkdc^sci Il2rg^tm1Wjl/SzJ); for tissue to tissue ratio at 1 h: NOD scid gamma (NOD.Cg-Prkdc scid Il2rg tm1Wjl/SzJ). The text has this: (§1) All animal studies were done in compliance with the Canadian Council on Animal Care guidelines and were approved by the Animal Care Committee of University of British Columbia (Vancouver, Canada). Immunodeficient female NOD.Cg-Prkdc ^sci Il2rg ^tm1Wjl/SzJ mice (NOD scid gamma) were obtained from an in-house breeding colony at the Animal Resource Centre of the BC Cancer Agency Research Centre and also from Jackson Laboratory. To sustain the growth of the ER-positive ZR-75-1 cell model, animals were administered a 1.7 mg, 60-day slow-release estrogen pellet from Innovative Research of America (Sarasota, FL) subcutaneously in the dorsal space of the neck. 3–5 days post pellet-implant, 10 million ZR-75-1 cells were re-suspended in a mixture of 1:1 PBS and Matrigel (Corning Inc., Corning, NY) and inoculated subcutaneously on the right shoulder. Tumors were grown for 5–6 weeks, until they reached a size of 7–11 mm in diameter.
(§2) Mice were sedated using 2 mL/min of O2 with 2% isoflurane and injected intravenously (i.v.) with 1–2 MBq of ^68Ga-labeled peptide. Mice were allowed to roam freely for 60 min prior to euthanasia by 2 mL/min of O2 with 4% isoflurane followed by CO2 asphyxiation. Blood was promptly collected by cardiac puncture and weighted. Internal organs were harvested, rinsed in PBS, patted dry and weighed. Organ uptake was measured either in a WIZARD 2480 gamma counter (Perkin Elmer) or Cobra II auto-gamma counter (Packard), both calibrated with standards of known ^68Ga activity. Uptake was normalized to the injected dose and to the respective weight of the organ, and expressed as percent injected dose per gram of tissue (%ID/g).
(§3) Tumor-bearing mice were injected i.v. with 8–9 MBq of ^68Ga-labeled peptide. Static PET images were acquired 55 min post-injection for 10 min using an Inveon microPET/CT scanner (Siemens, Erlangen, Germany) as described previously (Lin et al. [2015]). A baseline CT scan was used for localization and attenuation correction. Mice were promptly euthanized after imaging, and biodistribution studies were undertaken as described above.

A further data set has as its system ZR-75-1 tumors. The data set is described as above. The conditions noted are these: mouse, in vivo, iv; for Kidneys uptake / Tumor uptake: female, NOD scid gamma (NOD.Cg-Prkdc^sci Il2rg^tm1Wjl/SzJ).
Excerpt: as §1, §2, §3

In data set [2] the target is T1, sstr2 receptors on ZR-75-1 cells (Homo sapiens, UniProt P30874).
T1 construct: we used a human breast cancer cell model with endogenous sstr2 expression (ZR-75-1 cells); host or cells: ZR-75-1 cells
T1 sequence (P30874 whole entry): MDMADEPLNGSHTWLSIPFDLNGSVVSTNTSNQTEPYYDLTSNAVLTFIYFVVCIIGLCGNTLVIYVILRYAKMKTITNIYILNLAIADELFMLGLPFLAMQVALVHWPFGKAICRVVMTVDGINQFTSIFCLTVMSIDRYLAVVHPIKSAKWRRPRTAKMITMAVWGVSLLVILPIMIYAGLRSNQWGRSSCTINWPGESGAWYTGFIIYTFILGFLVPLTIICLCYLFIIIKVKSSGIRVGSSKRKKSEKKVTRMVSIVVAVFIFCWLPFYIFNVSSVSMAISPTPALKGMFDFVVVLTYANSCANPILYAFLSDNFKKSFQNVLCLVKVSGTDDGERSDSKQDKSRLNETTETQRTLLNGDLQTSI
Kind of data set: saturation binding assay on ZR-75-1 cells. The conditions noted are these: ZR-75-1 cells in vitro; 1 h at 25 °C; one-site binding model.

Data set [3] relates to sstr2. More on the design: method as in Fani et al. [2012b]. Particulars: autoradiography approach; ref Fani et al. [2012b]; cited from earlier work.
For another data set, the system named is NET. The conditions noted are these: human, in vivo; cited from earlier work.
For data set [4], the system named is sstr2. Details: method as in Reubi et al. [2000]. Particulars: ref Reubi et al. [2000]; cited from earlier work.

`C[C@@H](O)[C@H](NC(=O)[C@@H]1CSSC[C@H](NC(=O)[C@@H](Cc2ccccc2)NC(=O)CN2CCN(CC(=O)O)CCN(CC(=O)O)CCN(CC(=O)O)CC2)C(=O)N[C@@H](Cc2ccc(O)cc2)C(=O)N[C@H](Cc2c[nH]c3ccccc23)C(=O)N[C@@H](CCCCN)C(=O)N[C@@H]([C@@H](C)O)C(=O)N1)C(=O)O` [^68Ga-DOTATATE, ^68Ga-DOTA-Tyr^3-octreotate, metal not drawn]: the tissue uptake (in general, the share of the injected amount in each gram of the tissue) at 1 h in data set [1] (Blood uptake) is 0.35 %ID/g; in data set [1] (Bone uptake), 0.25 %ID/g; in data set [1] (Fat uptake), 0.28 %ID/g; in data set [1] (Heart uptake) it was 0.67 %ID/g; in data set [1] (Intestines uptake), 7.35 %ID/g; in data set [1] (Kidneys uptake), 8.5 ± 1.7 %ID/g. In addition, the tissue uptake at 1 h in data set [1] (Liver uptake) worked out at 1.95 %ID/g; in data set [1] (Lungs uptake), 28.7 %ID/g; in data set [1] (Ovaries uptake) it was 0.89 %ID/g; in data set [1] (Pancreas uptake) it was 51.6 %ID/g; in data set [1] (Spleen uptake) it was 0.84 %ID/g; in data set [1] (Stomach uptake), 8.29 %ID/g. Besides, in data set [1] (Uterus uptake), the tissue uptake at 1 h is 0.84 %ID/g. The Kidneys uptake with ZR-75-1 tumors (1 h) amounted to 8.45 %ID/g. For the same compound, the Brain uptake with ZR-75-1 tumors (1 h) was found to be 0.03 %ID/g.
As to `C[C@@H](O)[C@@H]1NC(=O)[C@H](CCCCN)NC(=O)[C@@H](Cc2ccc(NC(N)=O)cc2)NC(=O)[C@H](Cc2ccc(NC(=O)[C@@H]3CC(=O)NC(=O)N3)cc2)NC(=O)[C@H](NC(=O)[C@H](Cc2ccc(Cl)cc2)NC(=O)CCC(C(=O)O)N2CCN(CC(=O)O)CCN(CC(=O)O)CC2)CSSC[C@@H](C(=O)N[C@H](Cc2ccc(O)cc2)C(N)=O)NC1=O` (stereo partly drawn) [^67/natGa-NODAGA-JR11, metal not drawn], the “Bmax (number of binding sites)” value in data set [2] is 4.39 ± 0.32 × 10^4 sites/cell.
For the compound `C[C@@H](O)[C@@H]1NC(=O)[C@H](CCCCN)NC(=O)[C@@H](Cc2c[nH]c3ccccc23)NC(=O)[C@H](Cc2ccc(O)cc2)NC(=O)[C@@H](NC(=O)[C@@H](Cc2ccccc2)NC(=O)CN2CCN(CC(=O)O)CCN(CC(=O)O)CCN(CC(=O)O)CC2)CSSC[C@@H](C(=O)N[C@H](CO)[C@@H](C)O)NC1=O` [^68Ga-DOTATOC, ^68Ga-DOTA-Tyr^3-octreotide, metal not drawn], the tissue uptake at 1 h in data set [1] (Adrenals uptake) stood at 9.52 %ID/g; in data set [1] (Blood uptake) it was 0.45 %ID/g; in data set [1] (Bone uptake), 0.2 %ID/g; in data set [1] (Brain uptake), 0.03 %ID/g; in data set [1] (Fat uptake) it was 0.18 %ID/g; in data set [1] (Heart uptake), 0.3 %ID/g. Further, the tissue uptake at 1 h was 2.39 %ID/g in data set [1] (Intestines uptake); 9.3 ± 1.7 %ID/g in data set [1] (Kidneys uptake); 0.71 %ID/g in data set [1] (Liver uptake); 22.9 %ID/g in data set [1] (Lungs uptake); 0.11 %ID/g in data set [1] (Muscle uptake); 0.51 %ID/g in data set [1] (Ovaries uptake). Also, the tissue uptake at 1 h in data set [1] (Pancreas uptake) is 11 %ID/g; in data set [1] (Spleen uptake), 0.46 %ID/g; in data set [1] (Stomach uptake), 2.75 %ID/g; in data set [1] (Tumor uptake), 18.4 ± 2.9 %ID/g; in data set [1] (Uterus uptake) it was 0.54 %ID/g. The compound further had a Kidneys uptake in the data set with ZR-75-1 tumors (1 h) of 9.27 %ID/g. The same compound displayed a Tumor uptake in the data set on ZR-75-1 tumors (1 h) of 18.44 %ID/g.
For the compound `C[C@@H](O)[C@@H]1NC(=O)[C@H](CCCCN)NC(=O)[C@@H](Cc2ccc(NC(N)=O)cc2)NC(=O)[C@H](Cc2ccc(NC(=O)[C@@H]3CC(=O)NC(=O)N3)cc2)NC(=O)[C@H](NC(=O)[C@H](Cc2ccc(Cl)cc2)NC(=O)CCC(C(=O)O)N2CCN(CC(=O)O)CCN(CC(=O)O)CC2)CSSC[C@@H](C(=O)N[C@H](Cc2ccc(O)cc2)C(N)=O)NC1=O` (stereo partly drawn) [^natGa-NODAGA-JR11, metal not drawn], the IC50 (as a rule, the concentration that gives 50% inhibition) with sstr2 [3] is 1.2 ± 0.2 nM.
Consider `C[C@@H](O)[C@@H]1NC(=O)[C@H](CCCCN)NC(=O)[C@@H](Cc2ccc(NC(N)=O)cc2)NC(=O)[C@H](Cc2ccc(NC(=O)[C@@H]3CC(=O)NC(=O)N3)cc2)NC(=O)[C@H](NC(=O)[C@H](Cc2ccc(Cl)cc2)NC(=O)CCC(C(=O)O)N2CCN(CC(=O)O)CCN(CC(=O)O)CC2)CSSC[C@@H](C(=O)N[C@H](Cc2ccc(O)cc2)C(N)=O)NC1=O` (stereo partly drawn) [^68Ga-NODAGA-JR11, metal not drawn], for which the tissue to tissue ratio at 1 h turned out to be 15.6 in data set [1] (Tumor to Background Ratio: Blood (tumor-to-blood)), 0.87 in data set [1] (Tumor to Background Ratio: Kidneys) and 45.1 in data set [1] (Tumor to Background Ratio: Muscle (tumor-to-muscle)). For the same compound, the tissue uptake at 1 h in data set [1] (Adrenals uptake) turned out to be 2 %ID/g; in data set [1] (Blood uptake), 0.8 %ID/g; in data set [1] (Bone uptake) it was 0.26 %ID/g; in data set [1] (Brain uptake), 0.05 %ID/g; in data set [1] (Fat uptake), 0.23 %ID/g; in data set [1] (Heart uptake), 0.46 %ID/g. For the same compound, the tissue uptake at 1 h in data set [1] (Intestines uptake) came out at 0.9 %ID/g; in data set [1] (Kidneys uptake), 14.1 ± 1.7 %ID/g; in data set [1] (Liver uptake), 0.99 %ID/g; in data set [1] (Lungs uptake) it was 4.72 %ID/g; in data set [1] (Muscle uptake), 0.28 %ID/g; in data set [1] (Ovaries uptake) it was 0.67 %ID/g. The tissue uptake at 1 h in data set [1] (Pancreas uptake) turned out to be 9.29 %ID/g; in data set [1] (Spleen uptake) it was 0.39 %ID/g; in data set [1] (Stomach uptake), 1.36 %ID/g; in data set [1] (Tumor uptake) it was 12.2 ± 0.8 %ID/g; in data set [1] (Uterus uptake) it was 0.86 %ID/g. The compound also yielded a Kidneys uptake in the data set on ZR-75-1 tumors (1 h) of 14.12 %ID/g. The compound also gave a Tumor uptake in the data set on ZR-75-1 tumors (1 h) of 12.21 %ID/g. For the same compound, the “Tumor to Background Ratio: Blood (tumor-to-blood)” value in the data set on ZR-75-1 tumors came out at 15.6 ± 2.2. Also, the “Tumor to Background Ratio: Muscle (tumor-to-muscle)” value with ZR-75-1 tumors was 45.2 ± 11.6. In addition, the “higher SUVmax uptake compared to ^68Ga-DOTATOC” value in the data set with NET is reported as ~ 15%.
For `C[C@@H](O)[C@H](NC(=O)[C@@H]1CSSC[C@H](NC(=O)[C@@H](Cc2ccccc2)NC(=O)CN2CCN(CC(=O)O)CCN(CC(=O)O)CCN(CC(=O)O)CC2)C(=O)N[C@@H](Cc2ccc(O)cc2)C(=O)N[C@H](Cc2c[nH]c3ccccc23)C(=O)N[C@@H](CCCCN)C(=O)N[C@@H]([C@@H](C)O)C(=O)N1)C(=O)O` [^natGa-DOTATATE, metal not drawn], the half-maximal inhibitory concentration (IC50) in the data set on sstr2 [4] was […].
With `C[C@@H](O)[C@@H]1NC(=O)[C@H](CCCCN)NC(=O)[C@@H](Cc2c[nH]c3ccccc23)NC(=O)[C@H](Cc2ccc(O)cc2)NC(=O)[C@@H](NC(=O)[C@@H](Cc2ccccc2)NC(=O)CN2CCN(CC(=O)O)CCN(CC(=O)O)CCN(CC(=O)O)CC2)CSSC[C@@H](C(=O)N[C@H](CO)[C@@H](C)O)NC1=O` [^natGa-DOTATOC, metal not drawn], in the data set with sstr2 [4], the IC50 was […].
